According to patent US12187723B2 (BRISTOL-MYERS SQUIBB COMPANY, priority 2019, dated 2025):

Assays:
human TLR7 = biological target: T1, human TLR7 (Homo sapiens, UniProt Q9NYK1); experiment: TLR7 inhibition reporter assay (HEK-Blue SEAP); assay type: cell-based; settings: HEK-Blue cells overexpressing human TLR7, gardiquimod 7.5 μM, 22 hour incubation
T1 construct: host or cells: HEK-Blue cells
T1 sequence (Q9NYK1 27-1049): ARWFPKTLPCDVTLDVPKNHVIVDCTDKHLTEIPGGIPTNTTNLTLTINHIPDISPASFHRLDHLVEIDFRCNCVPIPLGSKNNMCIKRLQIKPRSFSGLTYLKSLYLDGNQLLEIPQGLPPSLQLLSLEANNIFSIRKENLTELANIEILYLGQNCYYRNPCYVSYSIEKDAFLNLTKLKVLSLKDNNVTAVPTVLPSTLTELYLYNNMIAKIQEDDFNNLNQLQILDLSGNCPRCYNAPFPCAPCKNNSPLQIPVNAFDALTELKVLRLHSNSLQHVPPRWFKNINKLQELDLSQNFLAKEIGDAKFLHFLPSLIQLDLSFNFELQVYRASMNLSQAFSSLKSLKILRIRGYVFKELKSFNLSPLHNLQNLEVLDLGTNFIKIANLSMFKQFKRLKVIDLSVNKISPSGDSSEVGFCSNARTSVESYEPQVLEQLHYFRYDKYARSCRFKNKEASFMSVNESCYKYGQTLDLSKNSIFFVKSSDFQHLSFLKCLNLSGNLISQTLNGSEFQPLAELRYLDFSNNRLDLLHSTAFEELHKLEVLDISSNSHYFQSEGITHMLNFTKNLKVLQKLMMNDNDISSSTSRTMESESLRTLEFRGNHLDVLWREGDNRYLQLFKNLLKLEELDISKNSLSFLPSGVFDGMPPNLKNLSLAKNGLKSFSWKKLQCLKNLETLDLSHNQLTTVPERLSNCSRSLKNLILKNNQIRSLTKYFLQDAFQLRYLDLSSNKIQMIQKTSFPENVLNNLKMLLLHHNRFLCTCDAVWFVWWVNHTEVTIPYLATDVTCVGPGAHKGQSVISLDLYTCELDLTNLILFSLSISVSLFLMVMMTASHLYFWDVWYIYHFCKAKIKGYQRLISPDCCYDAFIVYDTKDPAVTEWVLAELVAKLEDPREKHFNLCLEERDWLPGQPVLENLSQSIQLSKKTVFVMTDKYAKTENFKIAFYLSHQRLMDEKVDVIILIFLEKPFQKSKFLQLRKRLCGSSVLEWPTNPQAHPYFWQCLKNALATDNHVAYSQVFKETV
How it was run: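 HEK-Blue reporter cells (15,000/well TLR7, 20,000 TLR8) exposed to compound over 0.05 nM–50 μM, agonist-stimulated (R848 for TLR8, gardiquimod for TLR7), 22 h at 37 °C, 5% CO2. SEAP read with HEK-Blue Detection; % inhibition relative to agonist-plus-DMSO and known-inhibitor controls.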

human TLR8 = biological target: T2, human TLR8 (Homo sapiens, UniProt Q9NR97); experiment: TLR8 inhibition reporter assay (HEK-Blue SEAP); assay type: cell-based; settings: HEK-Blue cells overexpressing human TLR8, R848 15.9 μM, 22 hour incubation
T2 construct: host or cells: HEK-Blue cells
T2 sequence (Q9NR97 27-1041): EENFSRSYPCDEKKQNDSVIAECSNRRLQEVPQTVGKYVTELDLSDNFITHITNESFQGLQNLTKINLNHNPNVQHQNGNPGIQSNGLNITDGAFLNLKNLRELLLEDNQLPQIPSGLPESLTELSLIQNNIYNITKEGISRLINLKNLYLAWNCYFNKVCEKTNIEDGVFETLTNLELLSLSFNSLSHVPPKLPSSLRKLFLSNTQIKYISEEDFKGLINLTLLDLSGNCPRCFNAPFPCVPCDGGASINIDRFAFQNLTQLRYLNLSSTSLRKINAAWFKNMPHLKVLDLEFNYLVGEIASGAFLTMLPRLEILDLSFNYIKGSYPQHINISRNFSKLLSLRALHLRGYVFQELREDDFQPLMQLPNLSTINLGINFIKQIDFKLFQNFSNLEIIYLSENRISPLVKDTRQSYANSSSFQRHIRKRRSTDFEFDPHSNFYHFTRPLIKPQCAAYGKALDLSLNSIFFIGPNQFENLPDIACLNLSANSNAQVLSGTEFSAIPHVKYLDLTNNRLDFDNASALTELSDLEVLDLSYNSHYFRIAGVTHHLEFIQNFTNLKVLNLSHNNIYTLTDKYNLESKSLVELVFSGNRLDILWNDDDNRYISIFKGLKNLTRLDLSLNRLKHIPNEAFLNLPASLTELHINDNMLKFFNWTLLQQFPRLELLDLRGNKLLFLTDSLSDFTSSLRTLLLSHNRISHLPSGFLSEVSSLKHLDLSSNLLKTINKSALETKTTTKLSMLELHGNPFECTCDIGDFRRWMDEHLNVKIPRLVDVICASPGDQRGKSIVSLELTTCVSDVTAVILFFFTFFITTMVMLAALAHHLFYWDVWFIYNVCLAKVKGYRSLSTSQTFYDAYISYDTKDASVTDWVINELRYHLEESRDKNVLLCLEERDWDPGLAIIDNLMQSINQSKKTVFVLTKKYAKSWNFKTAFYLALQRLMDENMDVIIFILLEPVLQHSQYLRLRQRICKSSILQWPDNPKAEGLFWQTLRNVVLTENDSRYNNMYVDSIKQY
How it was run: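 Agonists used: gardiquimod 7.5 μM (TLR7), R848 15.9 μM (TLR8), ODN2006 5 nM (TLR9), added after 30 min room-temperature compound pre-treatment (0.05 nM–50 μM) of receptor-overexpressing HEK-Blue cells. SEAP reporter (NF-κB/AP-1 driven) read after 22 h at 37 °C; inhibition scaled between agonist+DMSO and reference-inhibitor wells.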

SMILES | IC50 (human TLR7) | IC50 (human TLR8)
Cc1c(-c2cc3[nH]c(=O)n([C@H]4CC[C@@H](NC5CCOCC5)CC4)c3cc2C(C)C)cn2ncnc2c1C [Example 187, 5-(7,8-dimethyl-[1,2,4]triazolo[1,5-a]pyridin-6-yl)-6-isopropyl-1-((1s,4s)-4-((tetrahydro-2H-pyran-4-yl)amino)cyclohexyl)-1,3-dihydro-2H-benzo[d]imidazol-2-one] | 4.09 nM | 0.8 nM
COc1cc(-c2cc3[nH]c(=O)n(C4CCC(N5CCC6(CC5)COC6)CC4)c3cc2C(C)C)cn2ncnc12 (centres unmarked) [Example 240, 1-(4-(2-oxa-7-azaspiro[3.5]nonan-7-yl)cyclohexyl)-6-isopropyl-5-(8-methoxy-[1,2,4]triazolo[1,5-a]pyridin-6-yl)-1,3-dihydro-2H-benzo[d]imidazol-2-one] | 3.52 nM | 0.13 nM
CCc1cc2c(cc1-c1cc(OC)c3ncnn3c1)[nH]c(=O)n2[C@@H]1CCCN(C(=O)CN(C)C)C1 [Example 228, (R)-1-(1-(dimethylglycyl)piperidin-3-yl)-6-ethyl-5-(8-methoxy-[1,2,4]triazolo[1,5-a]pyridin-6-yl)-1,3-dihydro-2H-benzo[d]imidazol-2-one] | 34.9 nM | 38.7 nM
COc1cc(-c2cc3[nH]c(=O)n(C4CCC(N5CC6(CCOCC6)C5)CC4)c3cc2C(C)C)cn2ncnc12 (single isomer, unassigned) [Example 236, 1-(4-(7-oxa-2-azaspiro[3.5]nonan-2-yl)cyclohexyl)-6-isopropyl-5-(8-methoxy-[1,2,4]triazolo[1,5-a]pyridin-6-yl)-1,3-dihydro-2H-benzo[d]imidazol-2-one] | 3.54 nM | 0.35 nM
CCc1cc2c(cc1-c1cc(OC)c3ncnn3c1)[nH]c(=O)n2[C@@H]1CCCN(CCC(C)(C)C)C1 [Example 208, (R)-1-(1-(3,3-dimethylbutyl)piperidin-3-yl)-6-ethyl-5-(8-methoxy-[1,2,4]triazolo[1,5-a]pyridin-6-yl)-1,3-dihydro-2H-benzo[d]imidazol-2-one] | 6.52 nM | 3.77 nM
COc1cc(-c2cc3[nH]c(=O)n([C@H]4CC[C@H](N(CC(C)C)CC(C)C)CC4)c3cc2C(C)C)cn2ncnc12 [Example 205, 1-((1r,4r)-4-(diisobutylamino)cyclohexyl)-6-isopropyl-5-(8-methoxy-[1,2,4]triazolo[1,5-a]pyridin-6-yl)-1,3-dihydro-2H-benzo[d]imidazol-2-one] | 4.76 nM | 1.63 nM
COc1c(C)c(-c2cc3[nH]c(=O)n(C4CCC(N5CCC(F)(F)CC5)CC4)c3cc2C(C)C)cn2ncnc12 (single isomer, unassigned) [Example 229, 1-(4-(4,4-difluoropiperidin-1-yl)cyclohexyl)-6-isopropyl-5-(8-methoxy-7-methyl-[1,2,4]triazolo[1,5-a]pyridin-6-yl)-1,3-dihydro-2H-benzo[d]imidazol-2-one] | 7.31 nM | 2.18 nM
Cc1cc2c(cc1-c1cc(C)c3ncnn3c1)[nH]c(=O)n2[C@@H]1CCCN(C(C)C)C1 [Example 17, (R)-1-(1-isopropylpiperidin-3-yl)-6-methyl-5-(8-methyl-[1,2,4]triazolo[1,5-a]pyridin-6-yl)-1,3-dihydro-2H-benzo[d]imidazol-2-one] | 13.1 nM | 14.5 nM
Cc1cc2c(cc1-c1cc(C)c3ncnn3c1)[nH]c(=O)n2[C@@H]1CCCN(C)C1 [Example 15, (R)-6-methyl-5-(8-methyl-[1,2,4]triazolo[1,5-a]pyridin-6-yl)-1-(1-methylpiperidin-3-yl)-1,3-dihydro-2H-benzo[d]imidazol-2-one] | 24.6 nM | 22.9 nM
COc1cc(-c2cc3[nH]c(=O)n(C4CCC(N5CCNC(=O)C5)CC4)c3cc2C(C)C)cn2ncnc12 (single isomer, unassigned) [Example 234, 6-isopropyl-5-(8-methoxy-[1,2,4]triazolo[1,5-a]pyridin-6-yl)-1-(4-(3-oxopiperazin-1-yl)cyclohexyl)-1,3-dihydro-2H-benzo[d]imidazol-2-one] | 42.7 nM | 10.5 nM

The remaining compounds from weak to strong by IC50 (human TLR7), led by results:

IC50 (human TLR7) | IC50 (human TLR8) | SMILES
3.51 nM | 0.81 nM | COc1cc(-c2cc3[nH]c(=O)n([C@H]4CC[C@H](N(C)C)CC4)c3cc2C(C)C)cn2ncnc12 [Example 202, 1-((1r,4r)-4-(dimethylamino)cyclohexyl)-6-isopropyl-5-(8-methoxy-[1,2,4]triazolo[1,5-a]pyridin-6-yl)-1,3-dihydro-2H-benzo[d]imidazol-2-one]
3.21 nM | 1.23 nM | COc1cc(-c2cc3[nH]c(=O)n([C@H]4CC[C@H](NCC(C)C)CC4)c3cc2C(C)C)cn2ncnc12 [Example 204, 1-((1r,4s)-4-(isobutylamino)cyclohexyl)-6-isopropyl-5-(8-methoxy-[1,2,4]triazolo[1,5-a]pyridin-6-yl)-1,3-dihydro-2H-benzo[d]imidazol-2-one]
1.93 nM | 2.31 nM | CCc1cc2c(cc1-c1cc(OC)c3ncnn3c1)[nH]c(=O)n2[C@@H]1CCCN(CC2CC2)C1 [Example 182, (R)-1-(1-(cyclopropylmethyl)piperidin-3-yl)-6-ethyl-5-(8-methoxy-[1,2,4]triazolo[1,5-a]pyridin-6-yl)-1,3-dihydro-2H-benzo[d]imidazol-2-one]
1.13 nM | 4.15 nM | COCCN1CCC[C@@H](n2c(=O)[nH]c3cc(-c4cc(OC)c5ncnn5c4)c(C(C)C)cc32)C1 [Example 226, (R)-6-isopropyl-5-(8-methoxy-[1,2,4]triazolo[1,5-a]pyridin-6-yl)-1-(1-(2-methoxyethyl)piperidin-3-yl)-1,3-dihydro-2H-benzo[d]imidazol-2-one]
0.95 nM | 0.13 nM | Cc1c(-c2cc3[nH]c(=O)n([C@H]4CC[C@@H](NC(C)C)CC4)c3cc2C(C)C)cn2ncnc2c1C [Example 186, 5-(7,8-dimethyl-[1,2,4]triazolo[1,5-a]pyridin-6-yl)-6-isopropyl-1-((1s,4s)-4-(isopropylamino)cyclohexyl)-1,3-dihydro-2H-benzo[d]imidazol-2-one]
0.81 nM | 0.26 nM | COc1cc(-c2cc3[nH]c(=O)n(C4CCC(N5CC(OC)C5)CC4)c3cc2C(C)C)cn2ncnc12 (centres unmarked) [Example 238, 6-isopropyl-5-(8-methoxy-[1,2,4]triazolo[1,5-a]pyridin-6-yl)-1-(4-(3-methoxyazetidin-1-yl)cyclohexyl)-1,3-dihydro-2H-benzo[d]imidazol-2-one]
